Values joined by “and” are separate entries in the source; they are usually repeats but may differ in a detail not shown here. Equal values may be shown once.
Conditions: instrument: DT, single field, calibrated with ESI Low Concentration Tuning Mix (Agilent)

Row | collision cross section (N2) ([M+Na]+) | collision cross section (N2) ([M-H]-) | collision cross section (N2) ([M+H]+) | SMILES | further results
1 | 134.6 Å² |  |  | OC1OC[C@H](O)[C@H](O)[C@H]1O (some centres not stated) [ARABINOSE] | 
2 | 156.4 Å² | 148.9 Å² |  | O=c1ccn([C@H]2C[C@H](O)[C@@H](CO)O2)c(=O)[nH]1 [DEOXYURIDINE] | 
3 |  | 114.3 Å² | 121.9 Å² | c1ncc2[nH]cnc2n1 [PURINE] | 
4 | 136.1 Å² and 136.5 Å² |  | 131.4 Å² and 131.6 Å² | NCCCCNCCCN [SPERMIDINE] | 
5 | 208.9 Å² | 197.3 Å² |  | OC[C@H]1O[C@H](OC[C@H]2O[C@H](O[C@]3(CO)O[C@H](CO)[C@@H](O)[C@@H]3O)[C@H](O)[C@@H](O)[C@@H]2O)[C@H](O)[C@@H](O)[C@H]1O [RAFFINOSE] | 
6 |  | 134.2 Å² |  | NC[C@H](O)c1ccc(O)c(O)c1 [NORADRENALINE] | collision cross section (N2) ([M-H2O+H]+): 137.2 Å²
7 |  |  | 127.7 Å² | NCCC[C@H](N)C(=O)O [L-ORNITHINE] | 
8 | 143.5 Å² |  | 135.9 Å² | O=C(O)Cc1c[nH]c2ccccc12 [INDOLE-3-ACETATE] | 
9 |  |  | 132.9 Å² | C[N+](C)(C)C[C@H](O)CC(=O)[O-] [L-CARNITINE] | 
10 |  |  | 123.8 Å² | CC(C)(N)C(=O)O [2-AMINOISOBUTYRATE] | 
11 |  | 230.3 Å² | 230.4 Å² | Nc1ncnc2c1ncn2[C@@H]1O[C@H](COP(=O)(O)OP(=O)([O-])OC[C@H]2O[C@@H]([n+]3cccc(C(=O)O)c3)[C@H](O)[C@@H]2O)[C@@H](O)[C@H]1OP(=O)(O)O [NICOTINIC ACID ADENINE DINUCLEOTIDE PHOSPHATE] | 
12 |  |  | 129.7 Å² | C[N+](C)(C)CCCC(=O)[O-] [DEOXYCARNITINE] | 
13 | 151.1 Å² | 133.9 Å² | 136.7 Å² | O=C(O)c1cc(=O)c2ccccc2[nH]1 [KYNURENATE] | 
14 | 175.3 Å² | 176.9 Å² |  | OC[C@H]1O[C@@H](O[C@H]2[C@H](O)[C@@H](O)[C@H](O)O[C@@H]2CO)[C@H](O)[C@@H](O)[C@H]1O [LACTOSE] | collision cross section (N2) ([M+K]+): 178.6 Å²
15 | 177 Å² |  | 171.4 Å² | Nc1ncnc2c1ncn2[C@@H]1O[C@H](COP(=O)(O)O)[C@@H](O)[C@H]1O [ADENOSINE MONOPHOSPHATE] | 
16 | 240.9 Å² | 230.7 Å² and 230.9 Å² | 232.6 Å² | NC(=O)c1ccc[n+]([C@@H]2O[C@H](COP(=O)(O)OP(=O)(O)OC[C@H]3O[C@@H](n4cnc5c(N)ncnc54)[C@H](OP(=O)(O)O)[C@@H]3O)[C@@H](O)[C@H]2O)c1 [NADP] | collision cross section (N2) ([M+H2O-H]-): 243.9 Å²; collision cross section (N2) ([M+Na-2H]-): 231.5 Å² and 231.8 Å²
17 | 184 Å² |  | 186.6 Å² | O=c1nc[nH]c2c1ncn2[C@@H]1O[C@H](COP(=O)(O)OP(=O)(O)O)[C@@H](O)[C@H]1O [INOSINE 5'-DIPHOSPHATE] | collision cross section (N2) ([M+Na-2H]-): 180 Å²
18 | 142.6 Å² |  |  | C[C@@H]1OC(O)[C@H](O)[C@H](O)[C@H]1O (some centres not stated) [RHAMNOSE] | 
19 |  | 172.7 Å² |  | O=C(/C=C/c1ccc(O)c(O)c1)O[C@@H](Cc1ccc(O)c(O)c1)C(=O)O [ROSMARINATE] | 
20 | 139.4 Å² and 143.3 Å² |  |  | OCC1(O)OC[C@H](O)[C@@H](O)[C@@H]1O (some centres not stated) [SORBOSE] | 
21 |  | 118.4 Å² | 128.2 Å² and 134.2 Å² | NCCS(=O)(=O)O [TAURINE] | 

Row | SMILES | collision cross section (N2) ([M+Na]+) | collision cross section (N2) ([M-H]-) | collision cross section (N2) ([M+H]+) | further results
22 | NCCCNCCCN [NORSPERMIDINE] | 132.4 Å² |  | 127.6 Å² | 
